We go through two compounds from US20110177155A1, “METHODS OF DELIVERY OF AGENTS TO LEUKOCYTES AND ENDOTHELIAL CELLS” (IMMUNE DISEASE INSTITUTE, INC., priority 2007, published 2011).

In series [1] the test system is siRNA-mediated mRNA degradation. The settings on record: cited from earlier work.
In another series the test system is INF-β, OAS1 and STAT1. Kind of series: Interferon assay (quantitative RT-PCR of IFN-responsive genes in splenocytes). It counts as cell-based, mouse. On the procedure: Spleenocytes (1×10^6 cells/ml) were mock treated or treated with β7 It-sNP and luciferase-siRNA (1000 pmol) or 5 μg/ml poly (I:C). After 48 h RNA was isolated and analyzed by quantitative RT-PCR for induction of IFN or interferon responsive genes as described below.
Total RNA (1 μg) isolated using RNeasy RNA isolation kit (Qiagen) or for tissues, RNAlater RNA stabilization reagent was used followed by RNeasy fibrous tissue mini kit (Qiagen) and reverse transcribed using Superscript III (Invitrogen) and random hexamers, according to the manufacturer's protocol. […] SYBR green (Molecular Probes) was used to detect PCR products. All reactions were done in a 25 μl reaction volume in triplicate. Primers for mouse GAPDH, STAT1, OAS1 and INF β were previously described (Song et al., 2005). The following primer pairs have been used: IL-12p40: Forward: 5′-[…]-3′ (SEQ ID NO:9); Reverse: 5′-[…]-3′ (SEQ ID NO:10); TNF α: Forward 5′-[…]-3′ (SEQ ID NO:11), Reverse 5′-[…]-3′ (SEQ ID NO:12); Cyclin D1: Forward 5′-CTTCCTCTCCAAAATGCCAG-3′ (SEQ ID NO:13), Reverse 5′-AGAGATGGAAGGGGGAAAGA-3′ (SEQ ID NO:14). PCR parameters consisted of 5 min of Taq activation at 95° C., followed by 40 cycles of PCR at 95° C.×20 sec, 60° C.×30 sec, and 69° C.×20 sec. Standard curves were generated and the relative amount of target gene mRNA was normalized to GAPDH mRNA. […]

With `CCn1cc(C(=O)O)c(=O)c2cc(F)c(N3CCNCC3)nc21` [Enoxacin], the “enhancement of siRNA-mediated mRNA degradation” value in series [1] (with siRNA) was “enhances siRNA-mediated degradation”. In addition, in series [1] (without siRNA), the “effect in mRNA degradation by itself” value was “essentially no effect”.

In the case of poly (I:C), the “induction of interferon-responsive genes (IRG: INF-β, OAS1, STAT1 mRNA)” value with INF-β, OAS1 and STAT1 was “induced”.
